RP-LC retention time data for 79 compounds are collected here from the METLIN SMRT retention time set (Domingo-Almenara et al. 2019).

Structures are written as SMILES.

The nature of the series: gradient 5% acetonitrile 3 min, to 50% in 2 min, to 85% in 15 min, held 3 min, 100 µL/min. Particulars: column: Zorbax Extend-C18 2.1 x 50 mm; eluents: water / acetonitrile, 0.1% formic acid. In outline: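 A Zorbax Extend-C18 column (2.1 × 50 mm, 1.8 μm) run at 100 μL/min with water and acetonitrile, both containing 0.1% formic acid, separated mixtures of ~100 pure standards. The HPLC was coupled to a quadrupole time-of-flight mass spectrometer operated in positive and negative ionization mode, with dead and dwell volumes of 40 μL and 900 μL. Each retention time was taken from a computationally picked adduct peak that was then manually inspected.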
For `CC(C)Oc1ccc(-c2noc(CCn3nc(-c4ccc5c(c4)OCO5)ccc3=O)n2)cc1`, the RP-LC retention time came to 1020 s.

In turn, `Cc1cccc(NC(=O)NC2CCN(c3ccc(C)c(C)c3)C2=O)c1` (centres undefined) yielded an RP-LC retention time of 923 s. For `CCN1CCN(c2cc(C(=O)O)c3cc(NS(=O)(=O)c4ccc(C(C)C)cc4)ccc3n2)CC1`, the RP-LC retention time came to 724 s.

Compound `Cn1cc(C(=O)N2CCCC2Cc2noc(C3CCCC3)n2)cn1` (centres undefined) returned an RP-LC retention time of 750 s.

As to `COc1ccc(S(=O)(=O)C(CNC(=O)c2ccco2)c2cccs2)cc1` (centres undefined), the RP-LC retention time is 735 s. Then `COc1ccc(-c2nc(Cn3cnc4ccccc4c3=O)no2)cc1OC`, with 765 s; and `Cc1nn(-c2ccc(-c3ccccc3)nn2)c(C)c1S(=O)(=O)NCc1ccc(F)cc1`, with 988 s. Regarding `O=C(c1nnn2c1COC(c1ccc(Cl)cc1)C2)N1CCN(C(=O)c2c(F)cccc2F)CC1` (centres undefined), the RP-LC retention time was 951 s. In the case of `Cc1nnc(NC(=O)CSc2nnc(-c3ccc(Cl)cc3)o2)s1`, the RP-LC retention time was 772 s. With `O=C(NCC(F)(F)F)C1CCN(C(=O)NCc2ccccc2)CC1`, the RP-LC retention time stood at 656 s. Regarding `Cc1ccc(-c2ccc(=O)n(Cc3noc(C(=O)NCCc4ccc(S(N)(=O)=O)cc4)n3)n2)cc1`, the RP-LC retention time was determined as 781 s. `O=C(CCc1conc1-c1cccc(F)c1)NCc1ccc(F)cc1`: the RP-LC retention time was determined as 899 s. As for `O=C(C1CC1)N1CCc2ccc(NS(=O)(=O)/C=C/c3ccccc3)cc21`, the RP-LC retention time was determined as 819 s. `C=CCNC(=O)N1CCCN(C2=NS(=O)(=O)C(c3cccc(Cl)c3)=C2C)CC1` came in with an RP-LC retention time of 773 s. Regarding `CCC(C(=O)NCCc1c[nH]c2ccc(Cl)cc12)n1c2ccccc2c2cnn(C)c(=O)c21` (centres undefined), the RP-LC retention time was found to be 986 s. For the compound `Cc1cccc(CC(=O)N2C[C@@H]3C[C@H](NC(=O)c4ccccc4)[C@H]2C3)c1`, the RP-LC retention time was 794 s. For the compound `Cc1ccc(NC(=O)NC2CCN(c3ccc(C)c(C)c3)C2=O)c(C)c1` (centres undefined), the RP-LC retention time amounted to 949 s.

The compound `Cc1nc(-c2csc(S(=O)(=O)N3CCC(C(=O)Nc4ccc(F)cc4F)CC3)c2)no1` gave an RP-LC retention time of 920 s. In the case of `Cc1oc(C2CCN(S(=O)(=O)c3ccccc3)CC2)nc1C(=O)N1CCOCC1` it was 758 s; in that of `CCOC(=O)Cn1c(=O)c2c(nc3n2CCN3c2ccc(OC)cc2)n(C)c1=O`, 826 s; in that of `COc1ccc(C2Cn3cnc(C(=O)N4CCC(C(=O)NC5CCCCCCC5)CC4)c3CO2)cc1` (centres undefined), 862 s.

`CCc1ccc(CNC(=O)C2CCN(c3cnc(N4CCOCC4)nc3)CC2)cc1` yielded an RP-LC retention time of 786 s. For the compound `Cc1cccc(-c2nnc(C)c(N3CCC(C)CC3)n2)c1`, the RP-LC retention time is 771 s. Compound `Cc1cc(C)c(CNC(=O)c2c(C)sc3ccn(C)c(=O)c23)c(C)c1` displayed an RP-LC retention time of 921 s. As for `COc1ccccc1N(Cc1nc2nc(C)cc(C)n2n1)C(=O)c1ccco1`, the RP-LC retention time is 709 s. The compound `Cn1cc(C2=CCN(S(=O)(=O)c3ccccc3)CC2)c2cccnc21` showed an RP-LC retention time of 927 s.

In turn, `CN1C(=O)CO[C@@H](C(=O)Nc2cccc(F)c2)[C@@H]1c1ccccc1` gave an RP-LC retention time of 782 s. `O=C(Nc1cccc(F)c1)N1CCCC1c1nc(-c2cccc(F)c2)no1` (centres undefined) yielded an RP-LC retention time of 994 s. Then `Cc1ccc(NC(=O)C2CCCN(S(=O)(=O)c3cc(-c4noc(C)n4)cs3)C2)c(C)c1` (centres undefined), with 983 s; and `CC(C)(C)NC(=O)NC1CCN(c2nc3cccnc3n(Cc3ccccc3)c2=O)CC1`, with 995 s; and `CNC(=O)c1ccc2c(c1)CCCN2C(=O)c1ccc(F)cc1`, with 698 s. As for `Cc1ccccc1CNC(=O)Cc1cn(C)c2ncccc12`, the RP-LC retention time was 689 s. In turn, `CNC(=O)C1CCCN(c2nc3ncn(CC(=O)Nc4cccc(C(F)(F)F)c4)c(=O)c3s2)C1` (centres undefined) displayed an RP-LC retention time of 704 s.

Compound `O=C(NCCc1csc(-c2ccc(Cl)cc2)n1)C(=O)Nc1ccc2c(c1)OCCO2` showed an RP-LC retention time of 1030 s. For `Cc1noc(C)c1CC(=O)NC1CCc2nn(CC3CC3)c(=O)n2CC1` (centres undefined), the RP-LC retention time worked out at 625 s. Consider `Cc1ccc(N2CCC(NC(=O)Nc3cc(C)cc(C)c3)C2=O)cc1` (centres undefined), for which the RP-LC retention time came out at 931 s. For the compound `Cc1ccc(NC(=O)N2CCCC2c2nncn2-c2ccccc2)c(Cl)c1` (centres undefined), the RP-LC retention time turned out to be 794 s. As to `CC(NC(=O)c1ccco1)c1nc(-c2ccc3ncn(C)c3c2)no1` (centres undefined), the RP-LC retention time was found to be 599 s. As for `Cc1ccc(-c2nc(-c3ccc4nnc(C)n4c3)no2)cc1`, the RP-LC retention time came out at 968 s. Then `CCn1ccc2c(cc(C(=O)Nc3cccc(C(F)(F)F)c3)n2C)c1=O`, with 880 s; and `O=C(NCc1ccc(F)cc1)c1cn2ccncc2n1`, with 667 s. In the case of `CCCCc1ccc(N2C=C(C#N)S(=O)(=O)c3ccccc32)cc1` it was 1150 s. Take `O=C(c1ccc(F)cc1F)N1CCN(c2cc(-c3ccc(Cl)cc3)[nH]n2)CC1`: the RP-LC retention time turned out to be 894 s. In the case of `O=C(CCC1CCCC1)NCCC1CCN(C(=O)Nc2cc(F)ccc2F)CC1`, the RP-LC retention time stood at 924 s. Then `CNS(=O)(=O)c1c[nH]c(=O)[nH]c1=O`, with 624 s. In the case of `CCC(C)NC(=O)C1CCN(S(C)(=O)=O)c2cc(Cl)ccc2O1` (centres undefined) it was 862 s; in that of `O=C(Cn1c(=O)c2cc(C3CC3)nn2c2ncccc21)N1CCc2ccccc21`, 808 s. In the case of `O=C(c1cccs1)N1CCCC1c1ccc(F)cc1` (centres undefined) it was 910 s; in that of `Cc1noc(C)c1CN1CCN(C(=O)c2cc(-c3ccco3)on2)CC1`, 572 s; in that of `O=C(c1ccc(C(F)(F)F)cc1)N1CCN(c2nc(CN3CCCCC3)cs2)CC1`, 684 s.

Consider `CCOC(=O)c1ccc(NC(=O)c2cnn(-c3ccc(Br)cc3)c2)cc1`, for which the RP-LC retention time turned out to be 1070 s.

Compound `Cc1cccc(C)c1N1CCN(C(=O)c2cccc(F)c2)CC1` showed an RP-LC retention time of 1030 s. As to `c1cc(-c2noc(C3CCOCC3)n2)ccc1OC1CNC1`, the RP-LC retention time was determined as 640 s. `CS(=O)(=O)N1CCCc2cc(C(=O)NCc3ccc4c(c3)OCO4)ccc21`: the RP-LC retention time is 779 s. The compound `Brc1ccc(-c2ccc(CNCC3CCNCC3)o2)cc1` had an RP-LC retention time of 597 s. Regarding `CCC(=O)N(C)CCc1noc(-c2ccc(C(=O)NCCC(C)C)cc2)n1`, the RP-LC retention time was found to be 806 s. Take `Cc1ccc2c(c1)N(C(=O)Cn1ccn3nc(-c4ccc(F)cc4)c(CO)c3c1=O)CCO2`: the RP-LC retention time was found to be 930 s. In the case of `Cc1nc(-c2csc(S(=O)(=O)N3CCC(C(=O)N4CCN(C)CC4)CC3)c2)no1` it was 616 s; in that of `O=C(NCc1ccc2c(c1)OCO2)c1cnn2c3c(cnc12)CCCCCC3`, 1000 s; in that of `COc1cc2c(C(=O)OCCc3ccccn3)cn(-c3ccccc3)c(=O)c2cc1OC`, 670 s.

In turn, `COC(=O)c1c(NC(=O)CN2C(=O)CCC2=O)sc(Cc2ccc3c(c2)OCO3)c1C` displayed an RP-LC retention time of 864 s. Then `Cc1noc([C@@H]2CN(C(=O)c3cc(C)oc3C)C[C@H]2CO)n1`, with 640 s; and `CCNC(=O)Cc1nnc(-c2cccc(F)c2)o1`, with 656 s; and `CSc1ccccc1NC(=O)c1cc2nc(C)ccc2o1`, with 756 s. `O=C(Cn1ncc2c(N3CCN(c4ccccn4)CC3)ncnc21)Nc1ccc(Cl)cn1` displayed an RP-LC retention time of 616 s.

In the case of `Cc1ccc(-c2nnc(-c3cccnc3N3CCN(C(=O)c4ccc(Br)o4)CC3)o2)cc1`, the RP-LC retention time stood at 1020 s.

`CCOC(=O)C1C(=O)C=C(c2cccc(NS(C)(=O)=O)c2)CC1c1cccs1` (centres undefined) gave an RP-LC retention time of 822 s. `Cc1oc(-c2cccc(Cl)c2)nc1Cn1nnc(-c2nc(-c3ccccc3)no2)c1C`: the RP-LC retention time came out at 1320 s.

Compound `O=C(c1csc(N2CCN(c3ccc(F)cc3)CC2)n1)N1CCCCC1` gave an RP-LC retention time of 1000 s. Compound `COc1cccc(-c2cc(C(N)=O)n(C)n2)c1` came in with an RP-LC retention time of 646 s. In the case of `Cc1ccc(-c2nc3nc(C)cc(C)n3c2Nc2ccc3c(c2)OCCO3)cc1` it was 704 s. Take `CC(=O)Nc1ccc(CC(=O)N2CCCC(c3nc(-c4ccc(NC(C)=O)cc4)no3)C2)cc1` (centres undefined): the RP-LC retention time amounted to 675 s. Consider `COc1cc2c(cc1CNC(=O)Cn1cnc3cc4c(cc31)OCCO4)OCCCO2`, for which the RP-LC retention time was 629 s. As to `Cc1cc2c(=O)n(CC(=O)Nc3cccc(Br)c3)ccc2s1`, the RP-LC retention time was determined as 850 s. For the compound `Cc1cc2c(=O)n(CC(=O)Nc3cc(F)ccc3F)ccc2s1`, the RP-LC retention time was 817 s.

As to `Cc1cccc(C)c1NC(=O)CN1C(=O)NC2(CCCCC2)C1=O`, the RP-LC retention time turned out to be 745 s.

`CCCC(NC(=O)C1CCCN(c2ccc(=O)n(-c3ccc(C)c(Cl)c3)n2)C1)c1cccs1` (centres undefined) returned an RP-LC retention time of 1040 s. `Cc1ccc(NS(=O)(=O)c2cc(-c3[nH]ncc3C(=O)N3CCOCC3)oc2C)c(F)c1` gave an RP-LC retention time of 701 s. `CCn1c(=O)c(NCc2cccc(Cl)c2)nc2ccncc21` yielded an RP-LC retention time of 649 s.
